According to patent US12662493B2, “Non-immunosuppressive FK506 analogs and use thereof” (The Johns Hopkins University, priority 2019, dated 2026):

Tests used:
[1] = tested on: full-thickness excisional wounds; assay: In vivo excisional wound model in diabetic GK rats; parameters: species or system Goto-Kakizaki (GK) type-2 diabetic rats
Description: Goto-Kakizaki (GK) type-2 diabetic rats obtained from Charles River (Boston, MA) were housed in a pathogen-free facility and cared for according to NIH guidelines and a protocol approved by the Johns Hopkins University Animal Care and Use Committee (ACUC). Both male and female GK rats at age of 4-5 months were used in this study.
(§1) Full-thickness wounds were created in the dorsal skin of rats with a sterile disposable biopsy punch (8 mm in diameter). The animals were injected subcutaneously with saline, AMD3100 (1 mg/kg) plus FK506 (0.1 mg/kg) or AMD3100 (1 mg/kg) plus FKVP (0.1 mg/kg) immediately after wounding and every other day until complete healing, defined as complete re-epithelialization of the wound area. For assessing the role of BMP signaling, animals were injected intraperitoneally (i.p.) with LDN-193189 (2 mg/kg/day) in addition to standard saline or AF treatment. Wounds were evaluated daily according to the method described previously (Lin et al., 2014).
The one-way analysis of variance (ANOVA) was used to determine the statistically difference in wound healing among AF, AF+LDN, Saline and S+LDN groups or between AF, AV and Saline groups when comparing days of wound healing.

[2] = tested on: BMP type 1 receptor (SMAD1/5 phosphorylation); assay: SMAD1/5 phosphorylation Western blot in Jurkat cells; type: cell-based; conditions: LDN treatment
[3] = tested on: CD133+ stem cells in wound sites; assay: CD133 immunohistochemistry of wound tissue of GK rats; type: in vivo, Goto-Kakizaki (GK) type-2 diabetic rats; conditions: day 7, versus AF
Description: as §1
Cut sections of 5 μm were prepared from frozen tissue for immunohistochemistry staining. Frozen sections were fixed with acetone at −20° C. for 10 min and dried for 1 h at room temperature. After inactivation of endogenous peroxidase and blocking of nonspecific antibody binding, the specimens were incubated with anti-CD133 (1:300, ab19898; Abcam) at 4° C. overnight. The tissue sections were then subsequently incubated with biotin-conjugated goat anti-rabbit IgG (1:200, #14708S Cell Signaling, Danvers, MA) for 30 minutes at room temperature. The VectaStain Elite ABC kit (HRP) (Vector Laboratories, Burlingame, CA) was used to increase the sensitivity of the staining. […]

[4] = tested on: BMP signaling pathway (ID1 gene promoter); assay: BMP-response-element (BRE) luciferase pathway reporter in Jurkat T cells; type: cell-based; conditions: for reduction of FK506- or FKVP-induced BRE reporter activity: LDN at 100 nM; for BRE reporter (ID-1 promoter luciferase) activation: 18 h, normalized to DMSO
Description: (§2) Jurkat (E6.1, ATCC) cells were cultured in RPMI with 10% FBS and 1.5% PennStrep. Jurkat cells (1×10^6) were transfected with 10 μg of BRE-Luciferase (kindly provided by Martine Roussel & Peter ten Dijke) or NFAT-Luciferase cDNA (Promega) by electroporation (BioRad, square-wave, 250V, […]) in 400 μL serum/antibiotic free RPMI with 0.5% DMSO. Thirty minutes after transfection, cells were transferred to complete RPMI and rested overnight. Before plating, cells were re-suspended in fresh media and diluted to 0.5×10^6 cells/mL. HEK293T cells were cultured in DMEM with 10% FBS, 1% PennStrep, and 500 μg/mL G418 (Corning). Cells were transfected using SuperFect reagent and supplied transfection protocols. HUVEC cells were cultured in Lonza Endothelial Cell Growth Medium (EGM-2) and used between passages 3 and 7. All cells were cultured at 37° C. with 5% CO2.
Jurkat T cells transfected with BRE-Luc were split into a 96-well plate (80 μL/well of 0.5×10^6 cells/mL)) and treated with previously stated compounds/proteins (20 μL of 5X stock in RPMI, 0.5% DMSO) for 18 h. rBMP-4 and […] (R&D) were used as positive and negative controls, respectively. Plates were centrifuged at 3000 rpm for 10 min, then carefully aspirated. Cells were re-suspended in 100 μL lysis buffer (per well) and placed on a plate-shaker for 30 min. An aliquot of 80 μL of lysate was transferred to a white-walled 96-well plate, and luminescence was recorded 2 seconds after automated injection of luciferase substrate. Luminescence values were background subtracted (lysis buffer+substrate) and normalized to DMSO control values.
FKBP12KO Jurkat T cells transfected with FKBP12-SNAP plasmid were selected with 1200 μg/mL G418 for seven days before use in BRE-Luc assays.

Jurkat T cells = assay: Resazurin-based cell viability assay of Jurkat cells; conditions: 3 days, concentrations up to 10 μM
Description: as §2
Jurkat or HUVEC cells were plated at 1000 cells/well in 180 μL growth media before addition of 20 μL of 10X drug/protein stock. After incubation for 72 h, 22 μL of a resazurin sodium salt solution (0.1 mg/mL stock in water) was added to each well and allowed to incubate at 37° C. The metabolic conversion of resazurin dye was monitored by absorbance at 570 nm after 6 h. After background subtraction (media only+dye), absorbance values were left as arbitrary absorbance units or normalized to those obtained from cells treated with DMSO.

[5] = tested on: cell migration stimulated by CXCL12; conditions: cited from earlier work
[6] = tested on: full-thickness excisional wounds; conditions: mouse, in vivo; cited from earlier work

## c1ccc2c(-c3cnn4cc(-c5ccc(N6CCNCC6)cc5)cnc34)ccnc2c1 [LDN-193189]
[1]; LDN-193189 2 mg/kg/day i.p. plus AF
  time for complete healing, LDN added to AF combination: 25 days
[1]; LDN-193189 2 mg/kg/day i.p. with saline
  effect on wound healing, LDN alone: no effect on wound healing
[2]
  effect on FK506/FKVP-induced SMAD1/5 phosphorylation: abolished
[3]
  number of CD133+ cells in the wounds, LDN added to AF combination: dramatically reduced
[4]
  reduction of FK506- or FKVP-induced BRE reporter activity: completely blocked

## C=CC[C@@H]1/C=C(\C)C[C@H](C)C[C@H](OC)[C@H]2O[C@@](O)(C(=O)C(=O)N3CCCC[C@H]3C(=O)O[C@H](/C(C)=C/[C@@H]3CC[C@@H](O)[C@H](OC)C3)[C@H](C)[C@@H](O)CC1=O)[C@H](C)C[C@@H]2OC [FK506]
Jurkat T cells
  cell viability: did not affect cell viability

## c1cc(CN2CCCNCCNCCCNCC2)ccc1CN1CCCNCCNCCCNCC1 [AMD3100, 1,1′-[1,4-phenylenebis(methylene)]bis-1,4,8,11-tetraazacyclo-tetradecane]
[5]
  IC50: 51 ± 17 nM
[6]
  healing, AMD3100 treatment alone: only slightly faster healing
[4]
  BRE reporter (ID-1 promoter luciferase) activation: no effect on ID-1 promoter stimulation

B1: Noggin: extracellular BMP-inhibitor protein (protein, UniProt Q13253 28-232, looked up)
Noggin: QHYLHIRPAPSDNLPLVDLIEHPDPIFDPKEKDLNETLLRSLLGGHYDPGFMATSPPEDRPGGGGGAAGGAEDLAELDQLLRQRPSGAMPSEIKGLEFSEGLAQGKKQRLSKKLRRKLQMWLWSQTFCPVLYAWNDLGSRFWPRYVKVGSCFSKRSCSVPEGMVCKPSKSVHLTVLRWRCQRRGGQRCGWIPIQYPIISECKCSC
[4]
  reduction of FK506- or FKVP-induced BRE reporter activity: not effective at reducing

B2: BMP4: recombinant BMP-4 protein, positive control of the BRE reporter (protein, UniProt P12644 293-408, looked up)
Bone morphogenetic protein 4: SPKHHSQRARKKNKNCRRHSLYVDFSDVGWNDWIVAPPGYQAFYCHGDCPFPLADHLNSTNHAIVQTLVNSVNSSIPKACCVPTELSAISMLYLDEYDKVVLKNYQEMVVEGCGCR
[4]
  BRE reporter (ID-1 promoter luciferase) activation: strong induction of luciferase expression
